Source: US4357341A, “Specific irreversible antagonism of histamine receptors by photoaffinity actuated compounds” (priority 1981, dated 1982)
Read-outs that look alike come from different tables or passages of the source.

Key:
[1] = target: T1, histamine receptor (H1), isolated guinea pig vas deferens (Cavia porcellus, UniProt P31389); test: cell-based; parameters: Emax: dose or concentration left out as unconfirmed
Experimental: Adult, albino guinea pigs (250-350 g; Hilltop Lab Animals, Scottdale, PA) were killed by a blow to the head. Vasa deferentia were removed, desheathed and mounted in conventional apparatus for the measurement of isometric contractile responses. Each tissue preparation was bathed in a separate glass, water-jacketed organ chamber containing modified Krebs-Henseleit solution (37° C.) for one hour prior to the beginning of the experiment. The tissues were washed every 15 minutes. Resting tension was 200 mg. Agonist agents were added to the bath with stepwise increases in concentration. The agonists were added at 10 minute intervals and the tissues were exposed to each concentration for 2 minutes; the tissues were washed twice with agonist-free Krebs-Henseleit solution, at 5 minute intervals, between agonist additions.
Effect of AAH after irradiation in the presence of histamine receptor ligands. […] AAH was then added to the test tissue, leaving the control exposed only to ligand, and after a 5-minute incubation, both the test and control tissues were irradiated for 5 minutes. Both tissues were washed twice with fresh Krebs-Henseleit solution to remove all agents, and concentration-response determinations were performed 10 minutes after irradiation.

[2] = test system: smooth muscle of the guinea-pig vas deferens, KCl responses; test: KCl-induced contraction of isolated vas deferens (specificity of AAH); assay type: cell-based
Experimental: (§1) The tissues were washed every 15 minutes. Resting tension was 200 mg.
(§2) The effects of AAH on the response of the smooth muscle of the guinea-pig vas deferens to several agonists were examined using the following protocols.
(§3) Effect of AAH after photoactivation. While in the organ bath, one tissue of a pair was exposed to AAH for 5 minutes. The preparation was then irradiated with a tungsten-halogen projector lamp (DVY, 650 W, 3400° K., filament ca. 10 cm from the tissue) for 5 minutes. Bath temperature remained at 37° C. during irradiation. At the end of irradiation the tissues were washed twice with fresh Krebs-Kenseleit solution lacking AAH. Concentration-response determinations were begun 10 minutes after irradiation. Contralateral control tissues were irradiated in the absence of AAH and otherwise handled identically. […] Also shown is the time-course of the decline of absorbance at 266 nm. The native spectrum, consisting of a pronounced peak at 266 nm, shoulder at 286 and broad peak at 480-485 nm, was changed by photolysis in a time-dependent manner to one with several smaller peaks and troughs.
(§4) Effect of AAH without photoactivation. Two types of experiments were performed with non-irradiated AAH. In the first type, the test tissue was exposed to AAH for 10 minutes but not irradiated during the latter five minutes; the AAH was washed out before agonist agents were added. That is, the same schedule as was used above was employed, but the preparations were not irradiated. In the second type of experiment with non-irradiated AAH, the compound was added to the bath 15 minutes before and remained present during the addition of agonists. The contralateral control tissues for these experiments received no treatment.

[3] = test system: smooth muscle of the guinea-pig vas deferens, MgATP responses; test: MgATP-induced contraction of isolated vas deferens (specificity of AAH); assay type: cell-based; conditions: 3×10^-5 M AAH
Experimental: as §1, §2, §3
(§5) Effect of AAH without photoactivation. Two types of experiments were performed with non-irradiated AAH. In the first type, the test tissue was exposed to AAH for 10 minutes but not irradiated during the latter five minutes; the AAH was washed out before agonist agents were added. […]

[4] = test system: smooth muscle of the guinea-pig vas deferens, norepinephrine responses; test: Norepinephrine-induced contraction of isolated vas deferens (specificity of AAH); assay type: cell-based; conditions: 3×10^-5 M AAH
Experimental: as §1, §2, §3, §5

[5] = test system: smooth muscle of the guinea-pig vas deferens, acetylcholine responses; test: Acetylcholine-induced contraction of isolated vas deferens (specificity of AAH); assay type: cell-based
Experimental: as §1, §2, §3, §4

[6] = Photolysis of AAH (absorbance decline at 266 nm); assay type: physicochemical
Experimental: FIG. 1 is spectra of 3×10^-5 M AAH (dissolved in modified Krebs-Henseleit solution) sampled before (solid line) and 5 minutes (dashed line) and 60 minutes (dotted line) after the beginning of irradiation. The reference cuvette contained modified Krebs-Henseleit solution. The inset illustrates the time-course of decline in absorbance a 266 nm; data points were obtained from scans performed after the irradiation intervals shown.
as §3

[7] = test system: guinea pig vas deferens; test: Direct contractile effect on isolated vas deferens; assay type: cell-based; conditions: AAH in the concentrations used
Experimental: as §1

[8] = target: T1, histamine receptor (H1), isolated guinea pig vas deferens; test: Histamine-induced contraction of isolated vas deferens after photolysis and washout of AAH; assay type: cell-based; parameters: smooth muscle of the guinea-pig vas deferens; from tissue; host or cells: isolated, desheathed vas deferens of adult albino guinea pigs (Hilltop Lab Animals, Scottdale, PA)
Experimental: as §1, §2, §3

[9] = target: T1, histamine receptor (H1), isolated guinea pig vas deferens; test: Histamine-induced contraction of isolated vas deferens after incubation with non-irradiated AAH and washout; assay type: cell-based; parameters: smooth muscle of the guinea-pig vas deferens; from tissue; host or cells: isolated, desheathed vas deferens of adult albino guinea pigs (Hilltop Lab Animals, Scottdale, PA); conditions: 3×10^-5 M AAH, 10 min incubation, not photoactivated, washed out
Experimental: as §1, §2, §4

[10] = target: T1, histamine receptor (H1), isolated guinea pig vas deferens; test: Histamine-induced contraction of isolated vas deferens in the continual presence of non-irradiated AAH; assay type: cell-based; parameters: smooth muscle of the guinea-pig vas deferens; from tissue; host or cells: isolated, desheathed vas deferens of adult albino guinea pigs (Hilltop Lab Animals, Scottdale, PA)
Experimental: as §1, §2, §4

[11] = 3×10^-5 M AAH, non-irradiated, continually present
[12] = 3×10^-5 M AAH, photoactivated, washed out
[13] = non-irradiated, continually present
[14] = 3×10^-6 M AAH, photolyzed, washed out
[15] = 10^-5 M AAH, photolyzed, washed out

T1 sequence (P31389 whole entry): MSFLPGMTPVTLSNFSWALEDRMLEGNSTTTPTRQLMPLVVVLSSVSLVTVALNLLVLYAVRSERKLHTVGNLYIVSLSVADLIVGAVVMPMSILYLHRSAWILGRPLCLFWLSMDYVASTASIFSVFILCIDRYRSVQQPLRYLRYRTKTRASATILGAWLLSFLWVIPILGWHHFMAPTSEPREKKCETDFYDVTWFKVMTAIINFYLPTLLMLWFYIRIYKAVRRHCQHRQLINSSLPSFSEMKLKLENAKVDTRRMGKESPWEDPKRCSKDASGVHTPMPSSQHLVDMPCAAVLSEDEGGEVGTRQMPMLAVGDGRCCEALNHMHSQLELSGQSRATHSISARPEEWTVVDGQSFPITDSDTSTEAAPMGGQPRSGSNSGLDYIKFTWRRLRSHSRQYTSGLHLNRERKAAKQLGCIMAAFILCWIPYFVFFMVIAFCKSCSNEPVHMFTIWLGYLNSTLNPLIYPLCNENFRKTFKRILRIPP

Compound: NCCc1c[nH]cn1 [histamine, 2-(4-imidazolyl)ethylamine]
- protection against AAH-induced antagonism when present during photoactivation of AAH ([1]; 3×10^-4 M histamine with AAH, n=4): no protective effect
- Emax ([1]; read-out: response of the tissue, % of maximum response to histamine): 90 to 100%

Compound: [N-]=[N+]=Nc1ccc(NCCc2c[nH]cn2)c([N+](=O)[O-])c1 [AAH, 4(5)-[2-(4-azido-2-nitroanilino)ethyl]imidazole]
- effect on concentration-response relationship for KCl [2, 11]: no significant effect on concentration-response relationships
- effect on maximum responses or EC50's of KCl [2, 12]: no effect on the maximum responses or EC50's
- EC50 ([2]; Cavia porcellus, light or radiation study, read-out: EC50 of KCl, AAH, 3×10^-5 M AAH, non-irradiated, continually present): 15.3 mM
- EC50 ([2]; Cavia porcellus, light or radiation study, read-out: EC50 of KCl, AAH, 3×10^-5 M AAH, photoactivated, washed out): 19.5 mM
- shift of MgATP concentration-response curve to the left of control [3, 13]: 12.89 fold
- effect on maximum responses or EC50's of MgATP ([3]; photoactivated, washed out): no effect on the maximum responses or EC50's
- shift of norepinephrine concentration-response curve to the left of control [4, 13]: 5.50 fold
- effect on maximum responses or EC50's of NE ([4]; photoactivated, washed out): no effect on the maximum responses or EC50's
- effect on concentration-response relationship for ACh [5, 11]: no significant effect on concentration-response relationships
- effect on the maximum response to ACh [5, 12]: no effect on the maximum response to ACh
- shift of the ACh concentration-response curve to the right of control [5, 12]: 3.07 fold
- responses to acetylcholine after photolysis of AAH ([5]; photolyzed AAH): only slightly reduced
- half-life at 30 µM ([6]; 3×10^-5 M AAH, modified Krebs-Henseleit solution, tungsten-halogen lamp 650 W, read-out: t1/2 of first-order absorbance reduction at 266 nm caused by photolysis): 3.8 min
- percent of the maximum absorbance reduction produced by the 5-minute photoaffinity labeling period ([6]; 5 min irradiation, 266 nm): ca. 62%
- contraction upon addition to the organ bath [7]: did not cause a contraction
- reversal of antagonism by repeated washing ([8]; 3×10^-5 M AAH, photolyzed): not reversed by repeated washing
- effect on the response of the tissues to histamine ([8]; 3×10^-5 M AAH, photolyzed, washed out): abolished the response of the tissues to histamine
- effect on maximum response to histamine [8, 14]: small but significant decrease in the maximum response to histamine
- shift of the histamine concentration-response curve to the left of control [8, 14]: 1.89 fold
- effect on the response of the tissues to histamine [8, 15]: intermediate and irreversible antagonism
- shape of histamine concentration-response curve [8, 15]: "bell"-shaped
- concentration range over which antagonism by AAH occurred ([8]; photolyzed AAH): 10 fold
- residual effect on responses to histamine [9]: no residual effect on responses to histamine
- effect on the response to histamine [10, 11]: abolished the response to histamine
- shift of the histamine concentration-response curve to the left of control ([10]; 3×10^-6 M AAH, non-irradiated, continually present): 2.01 fold
- shape of histamine concentration-response curve ([10]; 10^-5 M AAH, non-irradiated, continually present): "bell-shaped" concentration-response curve
- concentration range over which antagonism by AAH was observed ([10]; non-irradiated AAH, continually present): 10 fold
- reversibility of antagonism of histamine by non-photolyzed AAH ([10]; not irradiated): reversible if not irradiated

Compound: [Cl-].[K+] [KCl, reference compound]
- EC50 ([2]; irradiated control without AAH, read-out: EC50 of KCl, control): 20 mM
- EC50 ([2]; non-irradiated control without AAH, read-out: EC50 of KCl, control): 25 mM
